Counter-ions that a name gives are not always drawn.
Columns and labels:
[1] = biological target: T1, PI 3-kinase alpha (Homo sapiens, UniProt P42336); assay: Kinase Glo Luminescent Kinase Assay (Kglo), assay A; format: biochemical; conditions: read-out: Assay A PI3Kα IC50
Target sequence in this assay (P42336 whole entry): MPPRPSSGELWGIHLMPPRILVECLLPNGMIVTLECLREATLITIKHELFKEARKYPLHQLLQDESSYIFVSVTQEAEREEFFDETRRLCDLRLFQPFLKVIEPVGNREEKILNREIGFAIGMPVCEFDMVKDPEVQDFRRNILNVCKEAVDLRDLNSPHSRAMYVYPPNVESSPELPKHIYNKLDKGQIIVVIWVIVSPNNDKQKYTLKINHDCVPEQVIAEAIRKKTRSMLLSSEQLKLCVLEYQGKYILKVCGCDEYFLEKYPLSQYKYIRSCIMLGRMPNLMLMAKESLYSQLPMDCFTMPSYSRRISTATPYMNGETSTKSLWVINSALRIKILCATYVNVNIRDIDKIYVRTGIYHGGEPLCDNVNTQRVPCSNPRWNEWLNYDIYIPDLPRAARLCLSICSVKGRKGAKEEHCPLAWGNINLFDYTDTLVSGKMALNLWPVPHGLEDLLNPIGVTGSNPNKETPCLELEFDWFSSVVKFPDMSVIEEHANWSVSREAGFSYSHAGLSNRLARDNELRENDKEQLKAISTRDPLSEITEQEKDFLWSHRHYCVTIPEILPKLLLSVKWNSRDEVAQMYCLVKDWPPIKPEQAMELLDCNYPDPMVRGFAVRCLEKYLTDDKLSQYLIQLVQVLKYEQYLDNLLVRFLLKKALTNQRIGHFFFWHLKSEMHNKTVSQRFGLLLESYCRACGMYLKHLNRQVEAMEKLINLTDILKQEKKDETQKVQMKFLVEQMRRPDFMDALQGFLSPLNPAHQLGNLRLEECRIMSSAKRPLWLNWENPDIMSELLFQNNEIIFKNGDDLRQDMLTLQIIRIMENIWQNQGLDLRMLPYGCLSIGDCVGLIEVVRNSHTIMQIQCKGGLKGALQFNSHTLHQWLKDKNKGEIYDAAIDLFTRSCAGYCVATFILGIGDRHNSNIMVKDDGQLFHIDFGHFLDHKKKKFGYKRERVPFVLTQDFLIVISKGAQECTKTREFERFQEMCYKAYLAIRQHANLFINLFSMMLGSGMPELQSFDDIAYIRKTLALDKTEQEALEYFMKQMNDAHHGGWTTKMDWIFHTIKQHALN

[2] = biological target: T2, PI 3-kinase beta (Homo sapiens, UniProt P42338); assay: Kinase Glo Luminescent Kinase Assay (Kglo), assay B; format: biochemical; conditions: read-out: Assay B PI3Kβ IC50
Target sequence in this assay (P42338 whole entry): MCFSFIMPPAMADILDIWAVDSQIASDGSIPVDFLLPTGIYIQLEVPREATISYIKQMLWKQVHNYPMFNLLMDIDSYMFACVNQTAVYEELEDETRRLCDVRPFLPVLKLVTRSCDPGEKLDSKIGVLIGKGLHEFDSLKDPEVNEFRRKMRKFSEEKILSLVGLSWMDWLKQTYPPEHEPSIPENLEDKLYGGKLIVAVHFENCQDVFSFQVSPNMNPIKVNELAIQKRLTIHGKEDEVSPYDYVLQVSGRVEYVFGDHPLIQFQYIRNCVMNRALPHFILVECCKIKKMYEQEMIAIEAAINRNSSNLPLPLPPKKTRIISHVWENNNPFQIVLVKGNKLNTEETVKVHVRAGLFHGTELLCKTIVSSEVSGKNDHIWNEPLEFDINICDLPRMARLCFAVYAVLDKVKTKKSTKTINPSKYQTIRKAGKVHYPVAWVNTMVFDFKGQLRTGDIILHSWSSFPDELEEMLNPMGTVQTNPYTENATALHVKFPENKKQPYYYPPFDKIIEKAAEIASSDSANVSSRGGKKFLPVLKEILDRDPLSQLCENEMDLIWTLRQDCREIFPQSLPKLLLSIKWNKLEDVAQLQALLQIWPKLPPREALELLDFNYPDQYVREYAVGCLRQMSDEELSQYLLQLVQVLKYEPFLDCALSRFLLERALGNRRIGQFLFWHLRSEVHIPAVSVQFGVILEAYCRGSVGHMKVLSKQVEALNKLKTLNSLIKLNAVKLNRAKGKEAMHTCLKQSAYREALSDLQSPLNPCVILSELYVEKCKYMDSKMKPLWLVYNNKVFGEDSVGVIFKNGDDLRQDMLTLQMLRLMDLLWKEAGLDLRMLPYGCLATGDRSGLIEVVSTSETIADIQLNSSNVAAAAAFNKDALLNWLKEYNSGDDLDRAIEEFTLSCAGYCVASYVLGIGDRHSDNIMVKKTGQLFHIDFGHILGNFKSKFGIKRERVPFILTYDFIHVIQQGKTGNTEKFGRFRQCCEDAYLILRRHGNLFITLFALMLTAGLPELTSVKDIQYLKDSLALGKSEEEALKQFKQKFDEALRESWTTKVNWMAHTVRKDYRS
Target sequence in this assay (P27986 461-568 partner): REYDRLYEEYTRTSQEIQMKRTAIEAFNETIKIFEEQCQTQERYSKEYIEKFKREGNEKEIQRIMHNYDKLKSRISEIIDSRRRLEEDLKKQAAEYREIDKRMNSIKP

[3] = biological target: Vps34 (Homo sapiens, UniProt Q8NEB9); assay: Kinase Glo Luminescent Kinase Assay (Kglo), assay C; format: biochemical; conditions: read-out: Assay C VPS34 IC50
[4] = biological target: PI 4-kinase beta (Homo sapiens, UniProt Q9UBF8); assay: Kinase Glo Luminescent Kinase Assay (Kglo), assay D; format: biochemical; conditions: read-out: Assay D PI4Kβ IC50
PI 4-kinase beta, sequence (Q9UBF8 whole entry): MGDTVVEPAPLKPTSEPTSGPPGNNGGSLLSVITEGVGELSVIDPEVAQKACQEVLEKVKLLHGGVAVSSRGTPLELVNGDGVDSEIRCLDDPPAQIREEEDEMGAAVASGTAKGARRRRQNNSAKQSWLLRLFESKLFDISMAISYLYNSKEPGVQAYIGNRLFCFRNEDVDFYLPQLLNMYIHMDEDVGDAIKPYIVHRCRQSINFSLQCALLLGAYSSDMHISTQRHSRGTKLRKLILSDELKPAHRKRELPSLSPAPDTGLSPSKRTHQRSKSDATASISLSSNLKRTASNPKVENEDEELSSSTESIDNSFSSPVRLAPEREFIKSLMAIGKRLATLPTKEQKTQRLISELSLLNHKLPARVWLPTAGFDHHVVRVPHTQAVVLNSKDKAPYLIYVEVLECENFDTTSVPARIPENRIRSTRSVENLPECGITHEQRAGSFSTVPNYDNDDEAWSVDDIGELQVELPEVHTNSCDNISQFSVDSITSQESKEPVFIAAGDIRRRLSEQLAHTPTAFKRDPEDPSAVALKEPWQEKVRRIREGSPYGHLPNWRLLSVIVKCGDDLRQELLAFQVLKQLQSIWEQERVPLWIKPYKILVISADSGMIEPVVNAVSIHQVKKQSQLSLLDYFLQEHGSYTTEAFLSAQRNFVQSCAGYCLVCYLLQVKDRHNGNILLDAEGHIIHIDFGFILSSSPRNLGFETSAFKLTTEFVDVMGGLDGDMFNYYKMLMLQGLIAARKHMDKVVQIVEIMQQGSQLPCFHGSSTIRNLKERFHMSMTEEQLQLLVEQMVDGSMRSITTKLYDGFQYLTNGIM

[5] = biological target: T3, PI 3-kinase gamma (Homo sapiens, UniProt P48736); assay: TR-FRET Adapta assay, assay E; format: biochemical; conditions: read-out: Assay E PI3Kγ IC50
[6] = biological target: mTOR (Homo sapiens, UniProt P42345); assay: Lanthascreen kinase binding assay, assay G; conditions: read-out: Assay G mTOR IC50
Description: Lanthascreen™ Kinase Binding Assay for mTOR (G)
Binding of an inhibitor to the kinase competes for binding with the tracer, resulting in a loss of FRET.
50 nL of compound dilutions were dispensed onto white 384-well small volume polystyrene plate.

[7] = biological target: T1, PI 3-kinase alpha; assay: Cellular assay H1, p-Akt (S473) in Rat-1 cells, Surefire format; format: cell-based; conditions: non-asterisked data: version H1 (Surefire format), Rat-1 cells; read-out: Assay H PI3Kα IC50
Target sequence in this assay (P42336 whole entry): as the sequence (P42336 whole entry) above
Target sequence in this assay (Q63787 whole entry partner): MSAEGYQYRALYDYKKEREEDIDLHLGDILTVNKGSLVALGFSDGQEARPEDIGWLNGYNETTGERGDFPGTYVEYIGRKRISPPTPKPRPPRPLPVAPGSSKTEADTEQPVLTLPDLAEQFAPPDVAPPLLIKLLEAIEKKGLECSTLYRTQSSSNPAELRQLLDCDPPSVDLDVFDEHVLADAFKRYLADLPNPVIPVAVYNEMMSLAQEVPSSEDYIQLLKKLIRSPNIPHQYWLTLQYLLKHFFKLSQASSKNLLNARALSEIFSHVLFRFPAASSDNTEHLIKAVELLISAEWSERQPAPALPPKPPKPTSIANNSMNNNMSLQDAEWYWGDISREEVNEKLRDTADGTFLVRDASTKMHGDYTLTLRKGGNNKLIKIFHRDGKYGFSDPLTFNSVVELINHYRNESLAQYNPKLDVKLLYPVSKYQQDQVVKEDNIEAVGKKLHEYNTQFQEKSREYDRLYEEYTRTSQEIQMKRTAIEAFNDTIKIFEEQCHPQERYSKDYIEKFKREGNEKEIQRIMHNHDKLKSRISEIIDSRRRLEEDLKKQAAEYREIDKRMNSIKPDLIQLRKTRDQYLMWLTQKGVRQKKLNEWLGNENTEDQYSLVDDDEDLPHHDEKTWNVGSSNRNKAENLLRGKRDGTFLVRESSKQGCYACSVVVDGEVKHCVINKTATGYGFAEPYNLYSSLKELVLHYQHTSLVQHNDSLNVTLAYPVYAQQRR

[8] = biological target: T2, PI 3-kinase beta; assay: Cellular assay I1, p-Akt (S473) in Rat-1 cells, Surefire format; format: cell-based; conditions: non-asterisked data: version I1 (Surefire format), Rat-1 cells; read-out: Assay I PI3Kβ IC50
[9] = biological target: T4, PI 3-kinase delta (Homo sapiens, UniProt O00329); assay: Cellular assay J1, p-Akt (S473) in Rat-1 cells, Surefire format; format: cell-based; conditions: non-asterisked data: version J1 (Surefire format), Rat-1 cells; read-out: Assay J PI3Kδ IC50
Target sequence in this assay (O00329 whole entry): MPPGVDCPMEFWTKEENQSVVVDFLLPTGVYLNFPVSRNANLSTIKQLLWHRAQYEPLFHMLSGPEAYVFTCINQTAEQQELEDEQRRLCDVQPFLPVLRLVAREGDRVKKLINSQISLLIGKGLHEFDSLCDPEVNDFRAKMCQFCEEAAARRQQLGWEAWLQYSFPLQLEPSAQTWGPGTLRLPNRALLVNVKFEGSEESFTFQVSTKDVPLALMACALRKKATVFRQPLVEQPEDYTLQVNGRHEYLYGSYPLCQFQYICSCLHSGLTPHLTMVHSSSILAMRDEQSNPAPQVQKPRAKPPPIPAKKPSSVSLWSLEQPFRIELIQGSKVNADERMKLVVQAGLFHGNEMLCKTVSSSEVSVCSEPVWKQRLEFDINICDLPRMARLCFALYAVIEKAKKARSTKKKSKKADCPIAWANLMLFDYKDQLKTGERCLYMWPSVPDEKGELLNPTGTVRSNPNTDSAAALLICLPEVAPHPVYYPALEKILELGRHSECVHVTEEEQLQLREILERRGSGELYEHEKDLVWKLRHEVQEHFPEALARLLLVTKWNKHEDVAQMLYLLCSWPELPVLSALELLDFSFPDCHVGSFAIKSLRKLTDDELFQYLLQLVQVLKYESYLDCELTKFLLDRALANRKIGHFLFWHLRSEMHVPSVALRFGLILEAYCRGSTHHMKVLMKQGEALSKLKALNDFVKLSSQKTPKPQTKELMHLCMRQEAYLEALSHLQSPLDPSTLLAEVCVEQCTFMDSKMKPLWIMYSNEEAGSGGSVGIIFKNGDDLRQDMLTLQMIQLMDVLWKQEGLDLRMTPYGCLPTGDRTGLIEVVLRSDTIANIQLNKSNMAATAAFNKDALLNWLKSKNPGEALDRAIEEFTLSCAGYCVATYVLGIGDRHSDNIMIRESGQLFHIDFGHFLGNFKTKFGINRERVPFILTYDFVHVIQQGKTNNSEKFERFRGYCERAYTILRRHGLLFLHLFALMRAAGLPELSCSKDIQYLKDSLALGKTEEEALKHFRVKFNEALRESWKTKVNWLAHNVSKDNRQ
Target sequence in this assay (Q63787 whole entry partner): as the sequence (Q63787 whole entry partner) above

[10] = biological target: T3, PI 3-kinase gamma; assay: Cellular U937 AKT assay K1 (MSD); format: cell-based; conditions: U937 cells, K1 format; read-out: Assay K1 PI3Kγ IC50
[11] = system: IL-8-induced neutrophil shape change in human whole blood; assay: Whole blood neutrophil shape change assay (L); format: cell-based; conditions: Homo sapiens, Neutrophil, IL-8, human whole blood, read-out: Assay L WBSC IC50
[12] = biological target: T4, PI 3-kinase delta; assay: TR-FRET Adapta assay, assay F; conditions: read-out: Assay F PI3Kδ IC50
Target sequence in this assay (O00329 whole entry): as the sequence (O00329 whole entry) above
Target sequence in this assay (P27986 461-568 partner): as the sequence (P27986 461-568 partner) above

[13] = Microsomal clearance assay (M); conditions: intrinsic clearance in rat liver microsomes
Description: The experiments were performed in 96-well glass plates at 37° C. on an automated Tecan EVO platform. Test compounds at a concentration of 10 mM in pure DMSO were diluted 1:1000 in water to 10 μM. […] Reactions were initiated by the addition of 150 μL of a cofactor solution containing 2 mM NADPH.

| Compound | IC50 [1] | IC50 [2] | IC50 [3] | IC50 [4] | IC50 [5] | IC50 [6] | IC50 [7] | IC50 [8] | IC50 [9] | IC50 [10] | IC50 [11] | IC50 [12] | Assay M RLM CI(int) [13] |
| --- | --- | --- | --- | --- | --- | --- | --- | --- | --- | --- | --- | --- | --- |
| Cc1ccc(S(=O)(=O)N[C@H]2CC[C@H](O)CC2)cc1-c1cnc(N)c(-n2cncn2)n1 [Example 15, Trans-3-(5-Amino-6-(1H-1,2,4-triazol-1-yl)pyrazin-2-yl)-N-(4-hydroxycyclohexyl)-4-methylbenzenesulfonamide] | 0.16 µM | 1.93 µM | > 9.1 µM | 5.68 µM | 0.018 µM | > 9.1 µM | 1.93 µM | 2.01 µM | 1.45 µM | 0.061 µM | 0.166 µM | 0.15 µM | 24 µL/min/mg |
| Cc1ccc(S(=O)(=O)NCCC(C)(C)O)cc1-c1cnc(N)c(-c2cnn(Cc3ccccc3)c2)n1 [Example 132, 3-(5-Amino-6-(1-benzyl-1H-pyrazol-4-yl)pyrazin-2-yl)-N-(3-hydroxy-3-methylbutyl)-4-methylbenzenesulfonamide hydrochloride] | 0.18 µM | > 9.1 µM | > 9.1 µM | 2.26 µM | 0.017 µM | > 9.1 µM | 1.28 µM | 6.05 µM | 0.35 µM | 0.074 µM | 0.449 µM | 0.05 µM | – |
| Cc1ccc(S(=O)(=O)NC[C@H]2CCOC2)cc1-c1cnc(N)c(-c2cn(C)nc2C)n1 [Example 16, 3-[5-Amino-6-(1,3-dimethyl-1H-pyrazol-4-yl)-pyrazin-2-yl]-4-methyl-N—[(R)-1-(tetrahydrofuran-3-yl)methyl]-benzenesulfonamide] | 0.14 µM | 1.02 µM | > 10 µM | 6.4 µM | 0.009 µM | 5.3 µM | 0.9 µM | 1.86 µM | 0.62 µM | 0.043 µM | 0.154 µM | 0.25 µM | 47 µL/min/mg |
| Cc1ccc(S(=O)(=O)N[C@H]2CC[C@H](O)CC2)cc1-c1cnc(N)c(-c2nc(C(C)C)no2)n1 [Example 23, 3-[5-Amino-6-(3-isopropyl-[1,2,4]oxadiazol-5-yl)-pyrazin-2-yl]-N-(4-hydroxy-cyclohexyl)-4-methyl-benzene sulfonamide] | 0.39 µM | > 9.1 µM | > 9.1 µM | > 9.1 µM | 0.01 µM | 6.45 µM | 3.01 µM | 6.46 µM | 1.01 µM | 0.106 µM | 0.447 µM | 0.09 µM | – |
| CCc1noc(-c2nc(-c3cc(S(=O)(=O)N[C@H]4CC[C@H](O)CC4)ccc3C)cnc2N)n1 [Example 139, Trans-3-[5-Amino-6-(3-ethyl-[1,2,4]oxadiazol-5-yl)-pyrazin-2-yl]-N-(4-hydroxy-cyclohexyl)-4-methyl-benzene sulfonamide] | 0.54 µM | 8.39 µM | > 9.1 µM | > 9.1 µM | 0.016 µM | 8.3 µM | 1.08 µM | 7.96 µM | 0.97 µM | 0.102 µM | 0.565 µM | 0.16 µM | – |
| Cc1noc(-c2nc(-c3cc(S(=O)(=O)NCCC(C)(C)O)ccc3C)cnc2N)n1 [Example 3, 3-[5-Amino-6-(3-methyl-[1,2,4]oxadiazol-5-yl)-pyrazin-2-yl]-N-(3-hydroxy-3-methyl-butyl)-4-methyl-benzenesulfonamide] | 0.6 µM | 5.88 µM | > 9.1 µM | > 9.1 µM | 0.046 µM | > 9.1 µM | 1.04 µM | 8.33 µM | 1.17 µM | 0.394 µM | 1.11 µM | 0.14 µM | – |
| Cc1ccc(S(=O)(=O)N[C@H]2CC[C@H](O)CC2)cc1-c1cnc(N)c(-c2cnn(C)c2)n1 [Example 58, Trans-3-(5-Amino-6-(1-methyl-1H-pyrazol-4-yl)pyrazin-2-yl)-N-(-4-hydroxycyclohexyl)-4-methylbenzenesulfonamide] | 0.49 µM | 2.93 µM | 3.1 µM | 5.85 µM | 0.019 µM | > 9.1 µM | 8.58 µM | – | 2.46 µM | 0.073 µM | 0.385 µM | 0.1 µM | 14 µL/min/mg |
| Cc1ccc(S(=O)(=O)NCCC(C)(C)O)cc1-c1cnc(N)c(-c2cn(C)nc2C)n1 [Example 12, 3-(5-Amino-6-(1,3-dimethyl-1H-pyrazol-4-yl)pyrazin-2-yl)-N-(3-hydroxy-3-methylbutyl)-4-methyl benzenesulfonamide] | 0.14 µM | 2.65 µM | > 9.1 µM | > 9.1 µM | 0.041 µM | > 9.1 µM | 4.7 µM | > 10 µM | 3.41 µM | 0.117 µM | 0.2 µM | 0.24 µM | – |
| CCc1noc(-c2nc(-c3cc(S(=O)(=O)NCCC(C)(C)O)ccc3C)cnc2N)n1 [Example 136, 3-(5-Amino-6-(3-ethyl-1,2,4-oxadiazol-5-yl)pyrazin-2-yl)-N-(3-hydroxy-3-methylbutyl)-4-methylbenzenesulfonamide] | 0.44 µM | > 9.1 µM | > 9.1 µM | > 9.1 µM | 0.012 µM | > 9.1 µM | 0.99 µM | > 10 µM | 1.12 µM | 0.124 µM | 1.3 µM | 0.13 µM | – |
| Cc1nnc(-c2nc(-c3cc(S(=O)(=O)N[C@H]4CC[C@H](O)CC4)ccc3C)cnc2N)o1 [Example 1, Trans-3-[5-Amino-6-(5-methyl-[1,3,4]oxadiazol-2-yl)-pyrazin-2-yl]-N-(4-hydroxy-cyclohexyl)-4-methyl-benzenesulfonamide] | 1.3 µM | – | > 9.1 µM | > 9.1 µM | 0.015 µM | – | 9.36 µM | > 10 µM | 7.42 µM | 0.504 µM | 0.803 µM | 1.01 µM | <3.4 µL/min/mg |
| Cc1noc(-c2nc(-c3cc(S(=O)(=O)N[C@H]4CC[C@H](O)CC4)ccc3C)cnc2N)n1 [Example 2, Trans-3-[5-Amino-6-(3-methyl-[1,2,4]oxadiazol-5-yl)-pyrazin-2-yl]-N-(4-hydroxy-cyclohexyl)-4-methyl-benzenesulfonamide] | 0.82 µM | – | > 9.1 µM | > 9.1 µM | 0.003 µM | > 9.1 µM | 3.18 µM | > 10 µM | 1.07 µM | 0.147 µM | 0.687 µM | 0.39 µM | 25 µL/min/mg |

More lines, now with the values ahead:

| IC50 [1] | IC50 [2] | IC50 [3] | IC50 [4] | IC50 [5] | IC50 [6] | IC50 [7] | IC50 [8] | IC50 [9] | IC50 [10] | IC50 [11] | IC50 [12] | Assay M RLM CI(int) [13] | Compound |
| --- | --- | --- | --- | --- | --- | --- | --- | --- | --- | --- | --- | --- | --- |
| 0.16 µM | 0.69 µM | > 9.1 µM | 1 µM | 0.014 µM | > 9.1 µM | 5.51 µM | > 10 µM | 3.59 µM | 0.73 µM | 0.601 µM | 0.26 µM | 50 µL/min/mg | Cc1ccc(S(=O)(=O)NCCC(C)(C)O)cc1-c1cnc(N)c(-c2cn[nH]c2)n1 [Example 119.33] |
| 0.18 µM | 3.51 µM | > 9.1 µM | 4.25 µM | 0.013 µM | 6.59 µM | 2.27 µM | 7.42 µM | 1.27 µM | 0.041 µM | 1.49 µM | 0.22 µM | 49 µL/min/mg | CCn1cc(-c2nc(-c3cc(S(=O)(=O)NCCC(C)(C)O)ccc3C)cnc2N)cn1 [Example 119.34] |
| 0.12 µM | 2.25 µM | > 10 µM | 3 µM | – | 1.83 µM | 0.13 µM | > 10 µM | 0.83 µM | 0.036 µM | 0.97 µM | 0.53 µM | 40 µL/min/mg | Cc1ccc(S(=O)(=O)NOC2CCOC2)cc1-c1cnc(N)c(-n2cncn2)n1 (stereo not drawn) [Example 112.5, 3-(5-Amino-6-(1H-1,2,4-triazol-1-yl)pyrazin-2-yl)-4-methyl-N-((tetrahydrofuran-3-yl)oxy)benzenesulfonamide] |
| 0.4 µM | 5.78 µM | > 9.1 µM | 4.05 µM | 0.031 µM | 8.74 µM | 1.28 µM | 4.1 µM | 1.2 µM | 0.065 µM | 2.09 µM | 0.29 µM | – | CCCn1cc(-c2nc(-c3cc(S(=O)(=O)NCCC(C)(C)O)ccc3C)cnc2N)cn1 [Example 119.25] |

Reference: US10004732B2 (Novartis AG, priority 2014, dated 2018)
